Like-named read-outs stand apart in the source and are kept apart here. Non-standard residues stand in square brackets, D forms with d. Residues, ends and D or L forms follow the SMILES beside them. No end group written: not given here. *: point of attachment. dPhe(4-Cl) = N[C@H](Cc1ccc(Cl)cc1)C(=O)O; d2Nal = N[C@H](Cc1ccc2ccccc2c1)C(=O)O; Lys(iPr) = CC(C)NCCCC[C@H](N)C(=O)O; d3Pal = N[C@H](Cc1cccnc1)C(=O)O; Nicotinoyl = O=C(c1cccnc1)*; Picolinoyl = O=C(c1ccccn1)*
Assays:
rat mast cells = assay: in vitro histamine release test; type: cell-based; settings: for In Vitro Histamine Release ED50: rat mast cells, ± SEM
Method: The antiovulatory activity, AOA, in rats was determined as described by Humphries et al. (12). Antiovulation assays were performed by counting, on estrus, the number of ova shed by 4-day cycling rats after a single sc injection of the LH-RH analogue in corn oil was administered between 12 and 12:30 p.m. on […]. The control rats received 0.3 mL of the vehicle. The wheal test was performed by intradermally injecting 10 ug of peptide in 100 ul of saline into anaesthesized rats, measuring the ideally circular wheal response and calculating the area. The in vitro histamine release test was done as described by Karten et al. (4). A suspension of rat mast cells was added to increasing concentrations of peptide and the mixture was incubated for a few minutes followed by centrifugation to collect the histamine in the supernatant. A PIPES (piperazine-N,N'-bis[2-ethanesulfonic acid]) medium buffered at pH 7.4 containing NaCl 119 mM, KCl 5 mM, PIPES 25 mM, NaOH 40 mM, glucose 5.6 mM, CaCl2 1 mM, and 0.1% bovine serum albumin was used. This was designated as PIPES AC. Peptides were dissolved in double distilled H2 O at a concentration of 2 mg/ml and stored at -20° C. They were thawed just prior to testing, diluted in PIPES AC and prewarmed for five minutes at 37° C. Peptides studied were stable to heating at 56° C. for two hours, and to freezing and thawing.
Peritoneal cells were collected from male Sprague-Dawley rats weighing 200 to 250 gm and purchased from Harlan (Madison, Wis.). After euthanasia by CO2, the peritoneal cavity was washed with 50 ml PIPES AC medium containing 20 units of heparin. Following centrifugation at 200×g for eight minutes at 4° C., cells were washed again and finally resuspended to a concentration of 8 to 24×10^5 total leukocytes/ml in PIPES AC. This suspension contained approximately 5-10% mast cells. Washed cells were used immediately after collection and were prewarmed for five minutes at 37° C. prior to pipetting 0.25 ml aliquots into 12×75 mm polystyrene tubes containing 0.25 ml of diluted peptide. Mixtures were incubated for 15 minutes at 37° C. and the reaction stopped by centrifugation at 400×g for 15 minutes at 4° C. The cell supernatants were assayed for histamine content by the automated fluorometric assay procedure. See, Siraganian, R. P., "An automated continuous flow system for the extraction and fluorometric analysis of histamine." Anal. Biochem. 57:383 (1974); and Siraganian, R. P. and Hook, W. A., "Histamine release and assay methods for the study of human allergy," In Manual of Clinical Immunology, 3rd ed., N. R. Rose, H. Friedman, and J. L. Fahey (Eds.), Amer. Soc. for Microbiology, Washington (1986) p. 808.

anaesthesized rats [1] = assay: wheal test, intradermal injection; type: in vivo, rat; design: Wheal (wheal response): unit not given here; settings: for Wheal (wheal response): Table XIV and text, unit not given
How it was run: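 Anaesthetized rats given intradermal injection of 10 ug peptide in 100 ul saline; area of the wheal calculated from its diameter.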

anaesthesized rats [2] = settings: From Reference 1; cited from earlier work
26 days old female rats = assay: oral activity: serum LH and FSH after agonist [D-Qal^6]-LHRH; type: in vivo, rat; settings: for LH: 2 hours before 10 ng agonist; for FSH / Serum LH: -2 hr, agonist 10 ng sc, +2 hours
Method: For the determination of duration of action, the antagonist was administered s.c. or orally to 26 days old female rats at a specific time before administration of the agonist, [D-Qal^6 ]-LHRH. The serum levels of rat luteinizing hormone (LH) and rat follicle stimulating hormone (FSH) were then measured 2 hours after the agonist administration by RIA. The oral administration was done through force-feeding with feeding tubes.

rats = settings: reported in ref. 16, cited from earlier work
[3] = tested on: dispersed pituitary cell culture; assay: dispersed pituitary cell culture assay; type: cell-based

Compound: CC(=O)N[C@H](Cc1ccc2ccccc2c1)C(=O)N[C@H](Cc1ccc(Cl)cc1)C(=O)N[C@H](Cc1cccnc1)C(=O)N[C@@H](CO)C(=O)N[C@@H](CCCCNC(=O)c1ccccn1)C(=O)N[C@H](CCCCNC(=O)c1ccccn1)C(=O)N[C@@H](CC(C)C)C(=O)N[C@@H](CCCCNC(C)C)C(=O)N1CCC[C@H]1C(=O)N[C@H](C)C(N)=O (Ac-[d2Nal][dPhe(4-Cl)][d3Pal]SK(Picolinoyl)[dK](Picolinoyl)L[Lys(iPr)]P[dA]-NH2)
- histamine release (in words) (rat mast cells): released no more histamine than do "super agonists" of LHRH

Compound: CC(=O)N[C@H](Cc1ccc2ccccc2c1)C(=O)N[C@H](Cc1ccc(Cl)cc1)C(=O)N[C@H](Cc1cccnc1)C(=O)N[C@@H](CO)C(=O)N[C@@H](CCCCNC(=O)c1cccnc1)C(=O)N[C@H](CCCCNC(=O)c1cccnc1)C(=O)N[C@@H](CC(C)C)C(=O)N[C@@H](CCCCNC(C)C)C(=O)N1CCC[C@H]1C(=O)N[C@H](C)C(N)=O [Antide, [N-Ac-D-2-Nal^1, D-pClPhe^2, D-3-Pal^3, NicLys^5, D-NicLys^6, ILys^8, D-Ala^10]-LHRH] (Ac-[d2Nal][dPhe(4-Cl)][d3Pal]SK(Nicotinoyl)[dK](Nicotinoyl)L[Lys(iPr)]P[dA]-NH2)
- Wheal (anaesthesized rats [1]; Table I, 10 ug peptide intradermally): 132.7 mm^2 /10
- Wheal (wheal response) (anaesthesized rats [1]): 132.7
- histamine release (in words) (rat mast cells): released remarkably little histamine

Compound: CC(=O)N[C@H](Cc1ccc2ccccc2c1)C(=O)N[C@H](Cc1ccc(Cl)cc1)C(=O)N[C@H](Cc1cccnc1)C(=O)N[C@@H](CO)C(=O)N[C@@H](CCCCNC(=O)c1ccccn1)C(=O)N[C@H](CCCCNC(=O)c1ccccn1)C(=O)N[C@@H](CC(C)C)C(=O)N[C@@H](CCCCNC(C)C)C(=O)N1CCC[C@H]1C(=O)N[C@H](C)C(N)=O [IBR 25147, [N-Ac-D-2-Nal^1,D-pClPhe^2,D-3-Pal^3,PicLys^5,D-PicLys^6, ILys^8,D-Ala^10]-LHRH] (Ac-[d2Nal][dPhe(4-Cl)][d3Pal]SK(Picolinoyl)[dK](Picolinoyl)L[Lys(iPr)]P[dA]-NH2)
- Wheal (wheal response) (anaesthesized rats [1]): 123.0
- Wheal Area (anaesthesized rats [2]): 123 ± 0 mm^2 /10 μg

Compound: [N-Ac-D-2-Nal^1,D-4-F-Phe^2,D-Trp^3,D-Arg^6 ]-LHRH
- In Vitro Histamine Release ED50 (rat mast cells): 0.17 µg/mL
- In Vitro Histamine Release ED50 (rat mast cells; listed as [N-Ac-D-2-Nal^1,D-pFPhe^2,D-Trp^3,D-Arg^6 ]-LHRH): about 0.17 μg/ml
- In Vitro Histamine Release ED50 (rat mast cells; listed as standard compound): 0.1 to 0.2 µg/mL
- ED 50 (histamine release), starred test series (rat mast cells; test series in which the standard compound had ED 50 0.46 instead of the usual 0.1-0.2): 0.46 µg/mL

Compound: [N-Ac-D-pClPhe^1,2,D-Trp^3,D-Arg^6,D-Ala^10 ]-LHRH [VIII-25]
- LH (26 days old female rats; oral 30 ug): 39 ± 6 ng/mL
- LH (26 days old female rats; oral 100 ug): 26 ± 7 ng/mL
- FSH (26 days old female rats; oral in water 10 μg): 1794 ± 329 ng/mL
- Serum LH (26 days old female rats; oral in water 10 μg): 59 ± 11 ng/mL
- FSH (26 days old female rats; oral in water 30 μg): 1470 ± 190 ng/mL
- Serum LH (26 days old female rats; oral in water 30 μg): 39 ± 6 ng/mL
- FSH (26 days old female rats; oral in water 100 μg): 1161 ± 277 ng/mL
- Serum LH (26 days old female rats; oral in water 100 μg): 26 ± 7 ng/mL
- rats ovulated/total rats (rats; oral dose 500 ug): 9/11
- rats ovulated/total rats (rats; oral dose 1000 ug): 4/11
- rats ovulated/total rats (rats; oral dose 2000 ug): 0/11

Compound: luteinizing hormone releasing hormone (QHWSYGLRPG; ends and bridges not checked; UniProt P01148 24-33, looked up) [LHRH, natural hormone used as agonist in the pituitary cell culture assay]
- FSH ([3]; LHRH 0.1 nM alone): 221 ± 18 ng/mL
- RLH ([3]; LHRH 0.1 nM alone): 40 ± 7 ng/mL
- FSH ([3]; LHRH 0.3 nM alone): 562 ± 48 ng/mL
- RLH ([3]; LHRH 0.3 nM alone): 80 ± 1 ng/mL
- FSH ([3]; LHRH 1.0 nM alone): 802 ng/mL
- RLH ([3]; LHRH 1.0 nM alone): 118 ng/mL
- FSH ([3]; LHRH 3.0 nM alone): 646 ± 123 ng/mL
- RLH ([3]; LHRH 3.0 nM alone): 150 ± 1 ng/mL
- FSH ([3]; LHRH 10.0 nM alone): 602 ± 26 ng/mL
- RLH ([3]; LHRH 10.0 nM alone): 141 ± 4 ng/mL
- FSH ([3]; LHRH 30.0 nM alone): 557 ± 15 ng/mL
- RLH ([3]; LHRH 30.0 nM alone): 152 ± 7 ng/mL
